We go through 22 molecules from publication PMC12434667 (Journal of Medicinal Chemistry, 2025).

≈ marks a conversion by molar mass, not a printed value.

One data set addresses CDK1/cyclinB1 (Homo sapiens, UniProt P06493). The following applies: biochemical IC50 vs CDK2.
Data set [1] has as its system panel of nonmutant kinases. The data set is described as follows: Kinomescan panel. The data set is classed as binding. The settings on record: for kinases tested showing >90% inhibition versus control: 1 μM, panel of 403 nonmutant kinases; for kinomescan S(10) score: 1 uM, nonmutant kinases with % Ctrl <10 / nonmutant kinases tested.
For another data set, the target named is CDK9/CyclinT1 (Homo sapiens, UniProt P50750). The data set is described as follows: Biochemical enzymatic inhibition assay. The following applies: biochemical IC50 vs CDK2.
The target of another data set is CYP3A4 (Homo sapiens, UniProt P08684). In words: Cyp3A4 TDI. The class given is in vitro ADME.
A further data set deals with CDK2/CRBN (Homo sapiens, UniProt P24941+Q96SW2). The data set is described as follows: AlphaLisa ternary complex formation assay. The class given is binding. The settings on record: compound 28 used as 100% control. In general terms: Bead proximity is the source of the signal in Alpha formats.
Data set [2] in a line: Microsomal stability. The class given is in vitro ADME. The following applies: rat, liver microsomes. A general note: Liver microsomes are a subcellular fraction often used to study metabolism.
Data set [3] is described as follows: MDCK passive permeability. The data set is classed as in vitro ADME, canine. The settings on record: dog, pH 7.4.
Data set [4] is described as follows: Microsomal stability. The settings on record: human, liver microsomes. The class given is in vitro ADME.
The next data set deals with CDK2 (Homo sapiens, UniProt P24941). In words: 14-hr AlphaLISA of CDK2 degradation in MKN1 CCNE1amp cells. The data set is classed as cell-based. The following applies: read-out: MKN1 CDK2 DC50.
A further data set in a line: Rat PK. The data set is classed as in vivo. The following applies: in vivo; for Vd / clearance / half-life: iv, 2 mg/kg; for bioavailability: oral, 10 mg/kg.
A further data set is described as follows: FaSSIF solubility. The data set is classed as physicochemical. The settings on record: kinetic from dmso stock.
The nature of another data set: LogD. The following applies: 1-octanol/phosphate buffer, pH 7.4. The class given is physicochemical.
The next data set addresses MDR1 (Homo sapiens, UniProt P08183). In words: MDCK-MDR1 efflux ratio. The following applies: dog, MDCK-MDR1, pH 7.4. The data set is classed as in vitro ADME.
The subject of the next data set is HCC1569 tumor xenograft. The data set is described as follows: HCC1569 tumor xenograft efficacy. The class given is in vivo, mouse. The following applies: 150 mg/kg PO BID, 28 days.
The mark [5] stands for this setting: CYP3A4 TDI (+NADPH), 30 min pre-incubation with NADPH.
Setting [6] is: CYP3A4 TDI (-NADPH), 30 min pre-incubation without NADPH.

Sequence of CDK2/CRBN (Q16531 whole entry): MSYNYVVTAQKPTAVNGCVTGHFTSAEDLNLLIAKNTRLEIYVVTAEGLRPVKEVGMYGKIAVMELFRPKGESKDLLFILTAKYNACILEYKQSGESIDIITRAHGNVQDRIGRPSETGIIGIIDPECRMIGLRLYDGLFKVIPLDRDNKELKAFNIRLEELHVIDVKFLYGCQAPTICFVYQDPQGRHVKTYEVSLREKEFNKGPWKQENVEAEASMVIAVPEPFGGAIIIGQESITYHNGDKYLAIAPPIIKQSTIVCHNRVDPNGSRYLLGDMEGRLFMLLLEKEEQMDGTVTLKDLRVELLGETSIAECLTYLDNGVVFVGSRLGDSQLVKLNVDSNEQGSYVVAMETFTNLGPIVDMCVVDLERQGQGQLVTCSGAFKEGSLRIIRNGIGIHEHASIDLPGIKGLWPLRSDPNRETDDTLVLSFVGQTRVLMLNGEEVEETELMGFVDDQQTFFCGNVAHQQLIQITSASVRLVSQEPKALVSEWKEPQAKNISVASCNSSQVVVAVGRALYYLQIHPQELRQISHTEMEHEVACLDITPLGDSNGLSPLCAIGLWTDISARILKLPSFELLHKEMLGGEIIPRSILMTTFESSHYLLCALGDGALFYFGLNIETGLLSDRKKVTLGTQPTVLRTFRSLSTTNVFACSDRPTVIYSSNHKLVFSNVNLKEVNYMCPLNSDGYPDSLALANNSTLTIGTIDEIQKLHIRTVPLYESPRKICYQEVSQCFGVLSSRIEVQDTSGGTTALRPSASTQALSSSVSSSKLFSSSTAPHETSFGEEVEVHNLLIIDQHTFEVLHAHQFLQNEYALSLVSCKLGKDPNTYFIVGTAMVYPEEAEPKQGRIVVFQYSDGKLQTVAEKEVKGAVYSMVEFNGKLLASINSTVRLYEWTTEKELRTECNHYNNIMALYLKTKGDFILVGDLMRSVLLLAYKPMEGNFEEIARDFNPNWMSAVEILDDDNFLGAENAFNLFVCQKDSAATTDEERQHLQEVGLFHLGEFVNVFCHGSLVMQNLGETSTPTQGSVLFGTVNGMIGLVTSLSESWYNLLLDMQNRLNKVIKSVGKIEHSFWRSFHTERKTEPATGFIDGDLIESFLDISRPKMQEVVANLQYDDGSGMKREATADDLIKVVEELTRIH
Sequence of CDK2/CRBN (Q96SW2 40-442): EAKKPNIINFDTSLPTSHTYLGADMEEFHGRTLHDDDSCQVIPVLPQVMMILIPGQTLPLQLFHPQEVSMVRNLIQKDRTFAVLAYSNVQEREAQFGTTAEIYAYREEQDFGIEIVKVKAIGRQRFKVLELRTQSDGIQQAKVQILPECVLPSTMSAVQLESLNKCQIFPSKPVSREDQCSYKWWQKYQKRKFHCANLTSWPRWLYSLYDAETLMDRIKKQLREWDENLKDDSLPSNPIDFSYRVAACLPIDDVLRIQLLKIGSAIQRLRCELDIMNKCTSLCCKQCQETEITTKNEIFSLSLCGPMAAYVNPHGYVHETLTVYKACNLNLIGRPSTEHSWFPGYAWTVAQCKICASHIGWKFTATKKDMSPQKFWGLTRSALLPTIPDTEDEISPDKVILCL
Sequence of MDR1 (P08183 whole entry, species assumed): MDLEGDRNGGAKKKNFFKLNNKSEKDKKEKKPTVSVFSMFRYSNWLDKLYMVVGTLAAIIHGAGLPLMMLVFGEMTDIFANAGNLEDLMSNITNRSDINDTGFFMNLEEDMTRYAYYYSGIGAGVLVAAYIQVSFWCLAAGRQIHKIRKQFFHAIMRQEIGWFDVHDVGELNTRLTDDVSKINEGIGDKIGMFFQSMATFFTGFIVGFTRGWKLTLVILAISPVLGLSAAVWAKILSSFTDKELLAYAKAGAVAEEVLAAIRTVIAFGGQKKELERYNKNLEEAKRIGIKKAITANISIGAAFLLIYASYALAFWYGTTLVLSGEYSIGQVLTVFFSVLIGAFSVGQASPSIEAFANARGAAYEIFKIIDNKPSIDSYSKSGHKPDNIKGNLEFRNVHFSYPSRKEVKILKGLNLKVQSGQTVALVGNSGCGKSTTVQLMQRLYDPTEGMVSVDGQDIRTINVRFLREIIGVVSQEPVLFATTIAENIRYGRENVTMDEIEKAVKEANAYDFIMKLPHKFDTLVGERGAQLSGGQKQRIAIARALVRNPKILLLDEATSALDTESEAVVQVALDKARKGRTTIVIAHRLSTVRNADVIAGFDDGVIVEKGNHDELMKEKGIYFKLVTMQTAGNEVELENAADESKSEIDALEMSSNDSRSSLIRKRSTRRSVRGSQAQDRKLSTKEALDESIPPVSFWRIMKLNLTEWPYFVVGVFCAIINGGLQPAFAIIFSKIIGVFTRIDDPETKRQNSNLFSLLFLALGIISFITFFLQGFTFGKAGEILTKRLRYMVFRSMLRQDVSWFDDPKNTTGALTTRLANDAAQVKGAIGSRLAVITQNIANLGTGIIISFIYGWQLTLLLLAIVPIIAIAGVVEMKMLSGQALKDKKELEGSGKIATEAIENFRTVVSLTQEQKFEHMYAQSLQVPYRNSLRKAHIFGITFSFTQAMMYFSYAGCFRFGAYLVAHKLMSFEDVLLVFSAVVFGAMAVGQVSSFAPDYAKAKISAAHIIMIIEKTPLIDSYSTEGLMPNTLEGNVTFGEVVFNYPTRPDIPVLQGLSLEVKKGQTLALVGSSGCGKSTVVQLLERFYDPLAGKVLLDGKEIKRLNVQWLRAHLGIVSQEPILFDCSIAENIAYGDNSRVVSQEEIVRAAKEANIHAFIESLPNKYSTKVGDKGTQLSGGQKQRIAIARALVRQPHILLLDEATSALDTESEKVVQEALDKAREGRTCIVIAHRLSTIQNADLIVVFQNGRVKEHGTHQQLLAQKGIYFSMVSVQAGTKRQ
Sequence of CDK1/cyclinB1 (P14635 whole entry): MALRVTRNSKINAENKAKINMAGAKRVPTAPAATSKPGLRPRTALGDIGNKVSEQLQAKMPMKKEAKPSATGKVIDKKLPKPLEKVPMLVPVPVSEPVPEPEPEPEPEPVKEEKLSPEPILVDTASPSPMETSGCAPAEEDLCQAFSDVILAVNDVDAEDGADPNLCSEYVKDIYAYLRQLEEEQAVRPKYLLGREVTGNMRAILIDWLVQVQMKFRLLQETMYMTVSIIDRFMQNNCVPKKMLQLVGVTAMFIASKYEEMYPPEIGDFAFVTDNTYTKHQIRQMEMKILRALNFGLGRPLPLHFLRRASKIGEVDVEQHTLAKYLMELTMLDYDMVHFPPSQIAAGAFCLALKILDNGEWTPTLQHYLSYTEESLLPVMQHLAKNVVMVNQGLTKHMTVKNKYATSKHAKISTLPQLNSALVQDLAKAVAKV
Sequence of CDK1/cyclinB1 (P06493 whole entry): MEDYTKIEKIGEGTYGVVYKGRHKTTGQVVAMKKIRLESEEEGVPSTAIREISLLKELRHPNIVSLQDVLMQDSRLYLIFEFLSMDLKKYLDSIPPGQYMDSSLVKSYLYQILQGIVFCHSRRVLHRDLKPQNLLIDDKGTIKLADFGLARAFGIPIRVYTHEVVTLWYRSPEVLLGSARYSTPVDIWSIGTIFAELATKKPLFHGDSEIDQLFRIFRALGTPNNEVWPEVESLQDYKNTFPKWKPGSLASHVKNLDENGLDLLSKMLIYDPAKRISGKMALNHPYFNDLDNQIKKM
Sequence of CYP3A4 (P08684 whole entry): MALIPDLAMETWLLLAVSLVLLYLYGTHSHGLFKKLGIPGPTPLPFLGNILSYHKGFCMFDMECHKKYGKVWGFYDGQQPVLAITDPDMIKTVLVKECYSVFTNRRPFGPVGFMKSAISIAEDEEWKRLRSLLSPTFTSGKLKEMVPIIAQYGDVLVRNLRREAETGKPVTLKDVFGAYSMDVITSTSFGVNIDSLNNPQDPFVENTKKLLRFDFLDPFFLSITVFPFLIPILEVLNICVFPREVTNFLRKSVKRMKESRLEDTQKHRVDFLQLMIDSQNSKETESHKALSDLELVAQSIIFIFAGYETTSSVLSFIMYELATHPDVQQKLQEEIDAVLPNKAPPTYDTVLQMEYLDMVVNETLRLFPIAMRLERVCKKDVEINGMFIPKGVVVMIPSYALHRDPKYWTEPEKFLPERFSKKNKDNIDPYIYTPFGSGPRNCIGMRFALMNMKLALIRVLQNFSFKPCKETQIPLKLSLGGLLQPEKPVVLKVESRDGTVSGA

On to `CNS(=O)(=O)c1ccc(Nc2ncc(C(F)(F)F)c(N3CCC[C@](C)(O)C3)n2)c(C)c1` [Compound 7], for which, at CDK1/cyclinB1, the “selectivity vs CDK1” value was 42 fold. For the same molecule, the “kinases tested showing >90% inhibition versus control” value in [1] is 4/403. Also, the “selectivity vs CDK9” value at CDK9/CyclinT1 is on record as greater than 5000 fold.

As for `C[C@]1(O)CCCN(c2nc(Nc3ccc(S(=O)(=O)N[C@H]4CC[C@H](CN5CCN(c6ccc(C7CCC(=O)NC7=O)cc6F)CC5)CC4)cc3Cl)ncc2C(F)(F)F)C1` (stereo partly shown) [Compound 32], the “kinomescan S(10) score” value in data set [1] turned out to be 0. In addition, the IC50 on CYP3A4 (setting [5]) and against CYP3A4 (setting [6]) was greater than 10000 nM throughout.

Regarding `Cc1cc(S(=O)(=O)N[C@H]2CC[C@H](N3CCN(CC4CCN(c5cccc6c5n(C)c(=O)n6C5CCC(=O)NC5=O)CC4)CC3)CC2)ccc1Nc1ncc(C(F)(F)F)c(N2CCC[C@](C)(O)C2)n1` (stereo partly shown) [Compound 14], the “CDK2/CRBN/degrader ternary complex normalized AUC” value at CDK2/CRBN came to 10.

For the molecule `Cc1cc(S(=O)(=O)NC2CCC(CN3CCN(c4cccc(C5CCC(=O)NC5=O)c4)CC3)CC2)ccc1Nc1ncc(C(F)(F)F)c(N2CCC[C@](C)(O)C2)n1` (stereo partly shown) [Compound 26], on CDK2/CRBN, the “CDK2/CRBN/degrader ternary complex normalized AUC” value turned out to be 0.

Take `Cc1cc(S(=O)(=O)NCCO[C@H]2CC[C@H](CN3CCC(c4ccc5c(c4F)n(C)c(=O)n5C4CCC(=O)NC4=O)CC3)CC2)ccc1Nc1ncc(C(F)(F)F)c([C@H]2CC[C@@](C)(O)CC2)n1` (stereo partly shown) [Compound 9]: the CLint scaled (commonly a measure of how fast metabolising enzymes remove a compound, apart from limits set by blood flow) at 1 µM in the data set “Microsomal stability [2]” came out at 26 mL/min/kg. For the same molecule, in data set [3], the Papp A→B (in general, how fast a substance crosses the layer from the apical side) at 120 min, 1 µM worked out at 2 ×10⁻⁶ cm/s. In “Microsomal stability [4]”, the CLint scaled at 1 µM came to 102 mL/min/kg. Also, the DC50 (as a rule, the concentration giving 50% degradation) at CDK2 was 12 nM. Further, in “Rat PK”, the Vd – broadly, a proportionality between amount in the body and measured concentration, not a real space – is 11 L/kg; the clearance (as a rule, a measure of how efficiently the substance is removed, as volume per time) amounted to 45 mL/min/kg; the half-life (usually the time needed for the level to fall by half in the phase considered) is 4.9 h; the bioavailability (commonly the share of a dose that reaches the circulation, judged against a reference dose that is usually intravenous) was determined as 5%. Further, the solubility (commonly the concentration that dissolves in the medium under given conditions) at 2 h in “FaSSIF solubility” amounted to 173 µM (≈ 163 µg/mL). Further, in the data set “LogD”, the logD – broadly, the decadic logarithm of the distribution of all forms, ionised or not, between an organic phase and buffer at a given pH – at 1 h is 4.6. Also, the efflux ratio – broadly, a quotient of directional permeabilities that is used to spot active efflux – at 120 min, 1 μM on MDR1 is greater than 54.

For `Cc1cc(S(=O)(=O)NC2CC(N3CCN(CC4CCN(c5ccc(NC6CCC(=O)NC6=O)cc5C)CC4)CC3)C2)ccc1Nc1ncc(C(F)(F)F)c(N2CCC[C@](C)(O)C2)n1` (stereo partly shown) [Compound 21], on CDK2/CRBN, the “CDK2/CRBN/degrader ternary complex normalized AUC” value is listed as 4.0.

Consider `COCc1cc(C(=O)Nc2cc([C@H]3CC[C@@H](OC(=O)NC(C)C)C3)[nH]n2)n(C)n1` [PF-07104091, reference compound], for which, in the data set with HCC1569 tumor xenograft, the antitumor activity entry was “stable disease (30 to −30% is stable disease (0% = Tumor Stasis))”. Moreover, in the data set on HCC1569 tumor xenograft (HCC1569 xenograft mice), the “day 28 %dTV (mean ± SEM)” value turned out to be 4 ± 15%.

Take `Cc1cc(S(=O)(=O)NC2CC(N3CCN(CC4CCN(c5cccc6c5n(C)c(=O)n6C5CCC(=O)NC5=O)CC4)CC3)C2)ccc1Nc1ncc(C(F)(F)F)c(N2CCC[C@](C)(O)C2)n1` (stereo partly shown) [Compound 15]: the “CDK2/CRBN/degrader ternary complex normalized AUC” value at CDK2/CRBN was found to be 9.5.

Consider `Cc1cc(S(=O)(=O)N[C@H]2CC[C@H](CN3CCN(c4ccc(NC5CCC(=O)NC5=O)cc4F)CC3)CC2)ccc1Nc1ncc(C(F)(F)F)c(N2CCC[C@](C)(O)C2)n1` (stereo partly shown) [Compound 27], for which the “CDK2/CRBN/degrader ternary complex normalized AUC” value at CDK2/CRBN was 35.

Consider `Cc1cc(S(=O)(=O)N[C@H]2C[C@H](CN3CC(c4ccc(C5CCC(=O)NC5=O)c(Cl)c4)C3)C2)ccc1Nc1ncc(C(F)(F)F)c(N2CCC[C@](C)(O)C2)n1` (stereo partly shown) [Compound 22], for which the “CDK2/CRBN/degrader ternary complex normalized AUC” value on CDK2/CRBN is given as 0.

On to `Cc1cc(S(=O)(=O)N[C@H]2CC[C@H](CN3CCN(c4cccc(NC5CCC(=O)NC5=O)c4)CC3)CC2)ccc1Nc1ncc(C(F)(F)F)c(N2CCC[C@](C)(O)C2)n1` (stereo partly shown) [Compound 28], for which the “CDK2/CRBN/degrader ternary complex normalized AUC” value at CDK2/CRBN is 100.

In the case of `[2H][C@@](C)(COC1CCC(CN2CCN(c3ccc4c(c3F)n(C)c(=O)n4C3CCC(=O)NC3=O)CC2)CC1)NS(=O)(=O)c1ccc(Nc2ncc(C(F)(F)F)c(N3CCC[C@](C)(O)C3)n2)c(C)c1` (stereo partly shown) [Compound 13], the CLint scaled at 1 µM stood at 25 mL/min/kg in the data set “Microsomal stability [2]” and 143 mL/min/kg in “Microsomal stability [4]”. In data set [3], this molecule came in with a Papp A→B at 120 min, 1 µM of 2.3 ×10⁻⁶ cm/s. Moreover, the DC50 at CDK2 was 1 nM. The molecule also yielded a solubility at 2 h in “FaSSIF solubility” of 62 µM (≈ 59.5 µg/mL). In “LogD”, this molecule registered a logD at 1 h of 4.6. Also, the efflux ratio at 120 min, 1 μM on MDR1 worked out at 91.

Turning to `Cc1cc(S(=O)(=O)N[C@H]2C[C@H](CN3CCN(c4ccc(C5CCC(=O)NC5=O)c(Cl)c4)CC3)C2)ccc1Nc1ncc(C(F)(F)F)c(N2CCC[C@](C)(O)C2)n1` (stereo partly shown) [Compound 23], the “CDK2/CRBN/degrader ternary complex normalized AUC” value at CDK2/CRBN worked out at 4.8.

As to `CNS(=O)(=O)c1ccc(Nc2ncc(C(F)(F)F)c([C@H]3CC[C@](C)(O)CC3)n2)c(C)c1` [Compound 4, trans-4-[[4-(4-Hydroxy-4-methyl-cyclohexyl)-5-(trifluoromethyl)pyrimidin-2-yl]amino]-N,3-dimethyl-benzenesulfonamide], the “selectivity vs CDK1” value on CDK1/cyclinB1 is recorded as 16 fold.

In turn, `Cc1cc(S(=O)(=O)NCCO[C@H]2CC[C@H](CN3CCC(c4ccc5c(c4)n(C)c(=O)n5C4CCC(=O)NC4=O)CC3)CC2)ccc1Nc1ncc(C(F)(F)F)c([C@H]2CC[C@@](C)(O)CC2)n1` (stereo partly shown) [Compound 8] showed a CLint scaled at 1 µM in “Microsomal stability [2]” of less than 21 mL/min/kg. In addition, the Papp A→B at 120 min, 1 µM in [3] was found to be 1 ×10⁻⁶ cm/s. This molecule also registered a CLint scaled at 1 µM in “Microsomal stability [4]” of 79 mL/min/kg. On CDK2, the DC50 amounted to 4.9 nM. In the data set “Rat PK”, this molecule gave a Vd of 15 L/kg, a clearance of 59 mL/min/kg, a half-life of 5.7 h and a bioavailability of 1%. For the same molecule, the solubility at 2 h in “FaSSIF solubility” was found to be 153 µM (≈ 142 µg/mL). This molecule returned a logD at 1 h in “LogD” of 4.1. Moreover, the efflux ratio at 120 min, 1 μM at MDR1 is greater than 30.

`Cc1cc(S(=O)(=O)NC2CC(N3CCN(CC4CCN(c5cccc6c5n(C)c(=O)n6C5CCC(=O)NC5=O)CC4)C4(CC4)C3)C2)ccc1Nc1ncc(C(F)(F)F)c(N2CCC[C@](C)(O)C2)n1` (stereo partly shown) [Compound 19]: the “CDK2/CRBN/degrader ternary complex normalized AUC” value at CDK2/CRBN is given as 27.

Regarding `Cc1cc(S(=O)(=O)NC2CC(N3CC[C@@H](OC4CN(c5cccc6c5n(C)c(=O)n6C5CCC(=O)NC5=O)C4)[C@H](F)C3)C2)ccc1Nc1ncc(C(F)(F)F)c(N2CCC[C@](C)(O)C2)n1` (stereo partly shown) [Compound 20], the “CDK2/CRBN/degrader ternary complex normalized AUC” value on CDK2/CRBN is 7.9.

On to `Cc1cc(S(=O)(=O)N[C@]2(C)C[C@@H](N3CCN(CC4CCN(c5ccc6c(c5F)n(C)c(=O)n6C5CCC(=O)NC5=O)CC4)CC3)C2)ccc1Nc1ncc(C(F)(F)F)c(N2CCC[C@](C)(O)C2)n1` (stereo partly shown) [Compound 17], for which, at CDK2/CRBN, the “CDK2/CRBN/degrader ternary complex normalized AUC” value is given as 13.

For `CNS(=O)(=O)c1ccc(Nc2ncc(C(F)(F)F)c([C@H]3CC[C@@](C)(O)CC3)n2)c(C)c1` [Compound 3], at CDK1/cyclinB1, the “selectivity vs CDK1” value is 47 fold. For the same molecule, the “kinases tested showing >90% inhibition versus control” value in [1] is recorded as 2/403. Besides, at CDK9/CyclinT1, the “selectivity vs CDK9” value is listed as greater than 357 fold.

For `Cc1cc(S(=O)(=O)N[C@H]2CC[C@H](CN3CCN(c4ccc(C5CCC(=O)NC5=O)cc4F)CC3)CC2)ccc1Nc1ncc(C(F)(F)F)c(N2CCC[C@](C)(O)C2)n1` (stereo partly shown) [Compound 29], the “kinomescan S(10) score” value in data set [1] is given as 0.007.

On to `C[C@]1(O)CCCN(c2nc(Nc3ccc(S(=O)(=O)N[C@H]4CC[C@H](CN5CCN(c6ccc(C7CCC(=O)NC7=O)cc6F)CC5)CC4)cc3F)ncc2C(F)(F)F)C1` (stereo partly shown) [Compound 31], for which, in data set [1], the “kinomescan S(10) score” value amounted to 0. Further, the IC50 at CYP3A4 (setting [5]) and at CYP3A4 (setting [6]) was greater than 10000 nM in each case.

For `Cc1cc(S(=O)(=O)N[C@H]2CC[C@H](CN3CCN(c4ccc(C5CCC(=O)NC5=O)c(Cl)c4)CC3)CC2)ccc1Nc1ncc(C(F)(F)F)c(N2CCC[C@](C)(O)C2)n1` (stereo partly shown) [Compound 24], on CDK2/CRBN, the “CDK2/CRBN/degrader ternary complex normalized AUC” value was found to be 92. For the same molecule, the “CYP3A4 inhibition (in words)” value on CYP3A4 was “time- and NADPH-dependent inhibition”.
